Experimental data published in PMC3271384 (Molecular Genetics and Metabolism, 2012).
Changes are numbered by the printed parent chain.

Key:
[1] = target: T1, AGT-Mi (Homo sapiens, UniProt P21549, I340M/P11L/W108R); test: CD signal at […] nm titration of apoenzyme; type: binding
T1 sequence (P21549 1-392 P11L/W108R/I340M): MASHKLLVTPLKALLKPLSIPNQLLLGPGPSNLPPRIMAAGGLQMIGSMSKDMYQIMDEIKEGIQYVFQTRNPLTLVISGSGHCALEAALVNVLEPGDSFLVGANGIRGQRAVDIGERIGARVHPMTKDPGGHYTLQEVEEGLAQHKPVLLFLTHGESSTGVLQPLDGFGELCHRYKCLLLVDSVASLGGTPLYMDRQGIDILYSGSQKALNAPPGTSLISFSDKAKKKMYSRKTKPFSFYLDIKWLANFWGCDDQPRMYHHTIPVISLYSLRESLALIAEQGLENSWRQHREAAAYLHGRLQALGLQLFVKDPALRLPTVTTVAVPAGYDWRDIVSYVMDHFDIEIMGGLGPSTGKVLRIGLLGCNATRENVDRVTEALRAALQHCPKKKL

[2] = target: T2, AGT-Ma (Homo sapiens, UniProt P21549, S218L); test: CD signal at […] nm titration of apoenzyme; type: binding
T2 sequence (P21549 1-392 S218L): T1 sequence (P21549 1-392 P11L/W108R/I340M) with L11P, R108W, S218L, M340I

- Kd [1]: 96 ± 19 µM
- Kd [2]: 24.2 ± 0.1 µM
SMILES: Cc1ncc(COP(=O)(O)O)c(C=O)c1O [PLP]
